What all share (type): cell-based, human
In one assay the test system is COLO 205 cells. Put plainly: MTS cytotoxicity test with COLO 205 cells. The settings on record: three days with compound. In a few lines: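 COLO 205 human colon carcinoma cells, 1000/well, exposed for three days at 37 °C to nine 2-fold dilutions, top final concentration typically 5 μM. MTS formazan absorbance normalised to a time-0 plate; IC50 taken as concentration halfway between untreated maximum and high-drug minimum.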

The next assay relates to KB-8-5 cells. Put plainly: MTS cytotoxicity test with KB-8-5 cells (moderate P-glycoprotein). To be noted: for IC50: KB 8.5 cells, mean of 2 experiments; for Ratio 8.5/KB: IC50 on KB 8.5 cells/IC50 on KB cells. The source says: (§1) Human cancer cell lines, unless otherwise noted, are obtained from the American Type Culture Collection (Rockville, Md.). The following drug-sensitive parental cell lines, and their derived drug-resistant counterparts, are obtained from the originators as listed: (a) S1 (parental line from a subclone of human colon carcinoma line LS174T) and derived S1-M1-3.2 (herein called S1-M1) which expresses the MXR drug transporter protein, are provided by Dr. L. Greenberger, Wyeth Research (Rabindran, S. K., He, H., Singh, M., Brown, E., Collins, K. I., Annable, T., and Greenberger, L. M. Reversal of a novel multidrug resistance mechanism in human colon carcinoma cells by fumitremorgin C. Cancer Res., 58: 5850-5858, 1998); (b) parental HL-60 human promyelocytic leukemia line and derived HL-60/ADR, which expresses the MRP1 drug transporter protein, are provided by Dr. M. Center, University of Kansas (McGrath, T., and Center, M. S. Adriamycin resistance in HL60 cells in the absence of detectable P-glycoprotein. Biochem. Biophys. […] J. Biol. Chem., 261: 7762-7770, 1986) via Dr. L. Greenberger, Wyeth Research.
(§2) The assay, which is sold in kit form by Promega (Madison, Wis.; CellTiter 96 AQueous Non-Radioactive Cell Proliferation Assay), is based on the conversion by viable cells, but not by dead cells, of the tetrazolium salt, MTS (3-(4,5-dimethylthiazol-2-yl)-5-(3-carboxymethoxyphenyl)-2-(4-sulphophenyl)-2H-tetrazolium, inner salt), into a water-soluble colored formazan which is detected by spectrophotometry. Compounds are tested at nine concentrations, in order to determine IC50 values. For the test procedure, cells are harvested by trypsinization, washed, counted and distributed to wells of 96-well flat-bottom microtiter plates at 1000 cells per well in 200 μL of medium. In addition, one row of wells on a separate plate receives cells as above (“time 0” plate). All plates are incubated at 37° in humidified 5% CO2 in air for about 24 hr.
(§3) On day 2, compounds for test are diluted and added to wells. Compounds are dissolved in DMSO at 10 mg/mL. For each compound, nine serial 2-fold dilutions are prepared in DMSO. Ten μL of each dilution in DMSO are transferred to 100 μL of medium, mixed well, and then 5 μL of this dilution are transferred in quadruplicate to wells containing cells. […] Plates are returned to the incubator for three days. At the time of drug addition to the experimental plates, the MTS assay is run on the “time 0” plate. This produces the “time 0 MTS value” which is related to the number of viable cells per well at the time of drug addition.
(§4) After three days of culture with test compounds (day 5 overall), the MTS assay is done on all wells of the experimental plates. The absorbance values of the quadruplicate sample wells are averaged and divided by the average of the “time 0” values. […] The nine values for each compound are plotted against concentration, and the concentration that produces a relative color yield half way between the maximum and minimum is taken as the IC50 value.
(In general: Tetrazolium assays rely on reduction of a dye to a coloured formazan, in cell work by metabolically active cells.)

The subject of another assay is HL-60/ADR cells. The experiment in a line: MTS cytotoxicity test with HL-60/ADR cells (MRP1). The settings on record: for IC50: HL-60/ADR cells, mean of 2 experiments; for Ratio: IC50 on HL-60/ADR cells/IC50 on HL-60 cells.
Source text: as §1, §2, §3, §4
HL-60/ADR cells overexpress the multidrug resistance protein MRP1 which mediates resistance to some chemotherapeutics (Gottesman, M. M., Fojo, T., and Bates, S. E. Multidrug resistance in cancer: role of ATP-dependent transporters. Nature Rev. Cancer, 2: 48-58, 2002). The IC50 values of representative examples of this invention, as well as reference compounds, on HL-60/ADR are compared to values on the sensitive parental HL-60 line.

A further assay concerns S1-M1 cells. Put plainly: MTS cytotoxicity test with S1-M1 cells (MXR). The settings on record: for IC50: S1-M1 cells, mean of 2 experiments; for Ratio: IC50 on S1-M1 cells/IC50 on S1 cells.
Source text: as §1, §2, §3, §4
S1-M1 cells overexpress the MXR transporter which mediates resistance to some chemotherapeutics (Gottesman, M. M., Fojo, T., and Bates, S. E. Miltidrug resistance in cancer: role of ATP-dependent transporters. Nature Rev. Cancer, 2: 48-58, 2002). The IC50 values of representative examples of this invention, as well as reference compounds, on S1-M1 are compared to values on the sensitive parental S1 line.

Structures are written as SMILES. pIC50: −log10 of the molar value.

As for `CC[C@]1(O)C[C@H]2CN(CCc3c([nH]c4ccccc34)[C@@](C(=O)OC)(c3cc4c(cc3OC)N(C=O)[C@H]3[C@@](O)(C(=O)OC)[C@H](OC(C)=O)[C@]5(CC)C=CCN6CC[C@]43[C@@H]65)C2)C1` [Vincristine, reference compound], in the assay with COLO 205 cells (Homo sapiens, 72 h), the pIC50 was 8.59. For the same molecule, the IC50 in the assay on KB-8-5 cells (Homo sapiens) came out at 58 nM; with HL-60/ADR cells (Homo sapiens, HL60/ADR), 24 nM; in the assay on S1-M1 cells (Homo sapiens), 7.9 nM. Besides, in the assay with KB-8-5 cells, the “Ratio 8.5/KB” value worked out at 26. For the same molecule, the Ratio in the assay on HL-60/ADR cells amounted to 9.6; with S1-M1 cells, 0.6.

For `CNCCCOc1cc(F)c(-c2c(Cl)nc(-n3cccn3)nc2N[C@@H](C)C(F)(F)F)c(F)c1.Cl` [Example 32a, 6-Chloro-5-{2,6-difluoro-4-[3-(methylamino)propoxy]phenyl}-2-(1H-pyrazol-1-yl)-N-[(1S)-2,2,2-trifluoro-1-methylethyl)pyrimidin-4-amine Hydrogen Chloride], the negative-log IC50 (pIC50) in the assay with COLO 205 cells (Homo sapiens, 72 h) was 8.62. The IC50 in the assay on KB-8-5 cells (Homo sapiens) stood at 32 nM; with HL-60/ADR cells (Homo sapiens, HL60/ADR) it was 2.2 nM; with S1-M1 cells (Homo sapiens), 8.7 nM. In addition, the “Ratio 8.5/KB” value in the assay with KB-8-5 cells was 14. The results for the Ratio in the assay on HL-60/ADR cells and in the assay on S1-M1 cells were 0.8 and 0.9, respectively.

On to `CC(=O)O[C@H]1C(=O)[C@@]2(C)[C@H]([C@H](OC(=O)c3ccccc3)[C@]3(O)C[C@H](OC(=O)[C@H](O)[C@@H](NC(=O)c4ccccc4)c4ccccc4)C(C)=C1C3(C)C)[C@]1(OC(C)=O)CO[C@@H]1C[C@@H]2O` [Paclitaxel, reference compound], for which, in the assay with COLO 205 cells (Homo sapiens, 72 h), the pIC50 was 8.48. Moreover, the IC50 in the assay on HL-60/ADR cells (Homo sapiens, HL60/ADR) stood at 3.5 nM; in the assay on S1-M1 cells (Homo sapiens), 2.7 nM.

On to `CNCCCOc1cc(F)c(-c2c(Cl)nc(-c3cnccn3)nc2N[C@@H](C)C(F)(F)F)c(F)c1.Cl` [Example 24a, 6-Chloro-5-{2,6-difluoro-4-[3-(methylamino)propoxy]phenyl}-2-pyrazin-2-yl-N-[(1S)-2,2,2-trifluoro-1-methylethyl]pyrimidin-4-amine hygrogen chloride], for which the pIC50 in the assay on COLO 205 cells was 8.05. Besides, the “Ratio 8.5/KB” value in the assay with KB-8-5 cells was 3.5. Moreover, the IC50 in the assay with KB-8-5 cells stood at 24 nM; in the assay on HL-60/ADR cells, 6.3 nM; with S1-M1 cells it was 53 nM. For the same molecule, the Ratio in the assay on HL-60/ADR cells was found to be 1.0; in the assay on S1-M1 cells it was 2.7.

On to `CNCCCOc1cc(F)c(-c2c(Cl)nc(-c3ccccn3)nc2N[C@@H](C)C(F)(F)F)c(F)c1.Cl` [Example 29a, 6-Chloro-5-{2,6-difluoro-4-[3-(methylamino)propoxy]phenyl}-2-pyridin-2-yl-N-[(S)-2,2,2-trifluoro-1-methylethyl]pyrimidin-4-amine hydrogen chloride], for which the pIC50 with COLO 205 cells (Homo sapiens, 72 h) is 8.28. The IC50 in the assay with KB-8-5 cells (Homo sapiens) is 21 nM; in the assay with HL-60/ADR cells (Homo sapiens, HL60/ADR) it was 6.8 nM; with S1-M1 cells (Homo sapiens), 21 nM. In the assay with KB-8-5 cells, the “Ratio 8.5/KB” value is 3.4. Moreover, the Ratio in the assay on HL-60/ADR cells was determined as 1.0; in the assay on S1-M1 cells it was 2.7.

As a reminder, the pIC50 is the IC50 on a negative log10 scale, so that one unit is a factor of ten. By IC50 is commonly meant the point on the concentration scale where inhibition reaches its midpoint.

For the origin of these results see patent US7524849B2, “5-arylpyrimidines as anticancer agents” (Wyeth Holdings Corporation, priority 2003, dated 2009).
